Measured values: the NIST ThermoML archive (doi:10.1016/j.fluid.2012.01.031)
Numbers after ± are expanded uncertainties.

Details: Crystal; DTA

SMILES: c1ccc2c(c1)oc1ccccc12 [dibenzo[bd]furan]
- Normal melting temperature: 82.51 ± 0.41 °C

SMILES: c1ccc2c(c1)Cc1ccccc1-2 [fluorene]
- Normal melting temperature: 114.38 ± 0.41 °C
